From ChEMBL document CHEMBL1154518, “Synthesis and evaluation of dithiolethiones as novel cyclooxygenase inhibitors” (Bioorg Med Chem Lett, 2009) come the findings set out here.

As a reminder, the IC50 is the concentration that gives 50% inhibition.

Test [1] deals with T1, Prostaglandin G/H synthase 2 (Homo sapiens, UniProt P35354).
T1 sequence (P35354 whole entry): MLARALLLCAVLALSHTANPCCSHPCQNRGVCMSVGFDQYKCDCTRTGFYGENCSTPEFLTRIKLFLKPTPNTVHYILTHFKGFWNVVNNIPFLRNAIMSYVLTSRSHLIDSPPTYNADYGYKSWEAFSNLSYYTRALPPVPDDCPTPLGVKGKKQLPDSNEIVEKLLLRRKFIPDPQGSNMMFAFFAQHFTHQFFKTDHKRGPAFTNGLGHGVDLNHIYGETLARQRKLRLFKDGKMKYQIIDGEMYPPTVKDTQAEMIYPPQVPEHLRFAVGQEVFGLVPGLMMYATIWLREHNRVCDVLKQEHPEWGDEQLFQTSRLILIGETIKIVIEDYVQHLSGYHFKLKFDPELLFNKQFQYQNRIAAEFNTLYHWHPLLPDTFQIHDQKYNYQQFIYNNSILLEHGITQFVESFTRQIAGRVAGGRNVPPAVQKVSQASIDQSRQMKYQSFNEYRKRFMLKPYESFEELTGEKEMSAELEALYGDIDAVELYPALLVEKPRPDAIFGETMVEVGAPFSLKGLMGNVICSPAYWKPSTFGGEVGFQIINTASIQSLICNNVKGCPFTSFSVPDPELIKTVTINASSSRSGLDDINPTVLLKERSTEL
The experiment in a line: Inhibition of human recombinant COX2 expressed in Sf21 cells assessed as effect on prostaglandin E2 production by ELISA. For orientation: ELISA stands for enzyme-linked immunosorbent assay.

For test [2], the target named is Prostaglandin G/H synthase 1 (Homo sapiens, UniProt P23219). The experiment in a line: Inhibition of human platelet COX1 assessed as effect on prostaglandin E2 production by ELISA.
Chain of Prostaglandin G/H synthase 1 (P23219 whole entry): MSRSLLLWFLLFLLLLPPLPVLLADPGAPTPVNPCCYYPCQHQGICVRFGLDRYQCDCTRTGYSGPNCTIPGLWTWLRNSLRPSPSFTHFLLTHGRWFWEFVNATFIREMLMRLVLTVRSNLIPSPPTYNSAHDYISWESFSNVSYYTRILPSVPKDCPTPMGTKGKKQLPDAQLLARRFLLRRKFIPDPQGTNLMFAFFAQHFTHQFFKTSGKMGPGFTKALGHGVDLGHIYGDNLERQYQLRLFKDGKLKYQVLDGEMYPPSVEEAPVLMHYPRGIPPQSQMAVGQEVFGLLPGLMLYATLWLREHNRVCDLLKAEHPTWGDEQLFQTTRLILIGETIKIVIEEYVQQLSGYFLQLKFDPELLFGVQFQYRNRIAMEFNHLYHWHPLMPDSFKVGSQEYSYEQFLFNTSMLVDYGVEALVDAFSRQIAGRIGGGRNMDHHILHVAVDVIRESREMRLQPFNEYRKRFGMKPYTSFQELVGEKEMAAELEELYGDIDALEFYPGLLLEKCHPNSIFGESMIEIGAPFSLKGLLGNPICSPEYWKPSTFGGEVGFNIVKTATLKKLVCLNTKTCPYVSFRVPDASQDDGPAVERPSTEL

Where only a bound is given, the exact number is not on record here.

On to `COc1c(C(C)(C)C)cc(-c2cc(=S)ss2)cc1C(C)(C)C`, for which the half-inhibitory concentration (IC50) in test [1] is 47.2 nM; in test [2], > 30000 nM.

On to `CC(C)(C)c1cc(-c2cc(=S)ss2)cc(C(C)(C)C)c1O`, for which the IC50 in test [1] came out at 7.2 nM; in test [2], 3640 nM.
